Converted amounts (≈) assume the structure as drawn.

By microsomal CLint is commonly meant the capacity of the preparation to metabolise the compound, expressed as a volume cleared per time. Low readings indicate slow turnover, high ones rapid turnover. In general, EC50 refers to the concentration that produces a half-maximal response. A higher EC50 goes with a need for much substance. As a reminder, the Solubility is how much of the substance goes into solution per volume. Read a low Solubility as a poorly soluble substance. Usually solubility stands for how much of the substance goes into solution per volume. A high value points to much dissolved substance.

A short description of one series: in vitro. The conditions noted are these: CD-1, mouse, microsomes, pH 7.4.
A short description of series [1]: Pharmacokinetic experiments (aqueous hydroxypropyl-β-cyclodextrin formulation). The conditions noted are these: mice, single oral dose 20 mg/kg, vehicle aqueous 100 mM hydroxypropyl-β-cyclodextrin. The format is in vivo, CD1 female mice.
Method: Pharmacokinetic experiments (aqueous hydroxypropyl-β-cyclodextrin Formulation). Compounds solubilized in aqueous hydroxypropyl-β-cyclodextrin solution (100 mM) were administered in single dose (20 mg/kg) to CD1 female mice (25-30 g) (Charles River Laboratories). […] Mice were immediately sacrificed by cervical dislocation. Three mice were dosed per kinetics time point.
(§1) Plasma samples preparation. Plasma samples were thawed on ice. Aliquots of 50 μL were precipitated with 450 μL of ice cold acetonitrile containing internal standard (1 μM). The samples were vigorously mixed with a Vortex, centrifuged at 10000 rpm, at 4° C. for 10 min and the supernatants were transferred into Matrix tubes for LC-MS-MS analysis. Spiked standard solutions (10, 50, 100, 500, 1000, 5000, 10000 and 50000 nM) were prepared the same way.
Series [2] has as its system M. tuberculosis H37Rv-GFP in Raw264.7 macrophages. Kind of series: microbe, parasite or virus in culture. The format is cell-based. The conditions noted are these: Mycobacterium tuberculosis.
For series [3] the following is noted: pH 7.4, PBS.
A further series is described as follows: physchem. The conditions noted are these: pH 7.4, aqueous buffer, kinetic from dmso stock.
Series [4] is described as follows: Pharmacokinetic experiments (DMSO formulation). The format is in vivo, Swiss mice. The conditions noted are these: mice, oral, dose 20 mg/kg, vehicle 100% DMSO.
Method: Pharmacokinetic experiments (DMSO Formulation). Compounds were administered at 20 mg per kg body weight by oral route to Swiss mice (22-24 g) (WIV-ISP breeding). Three mice per time point were anesthetized with ketamine-xyalzine and bled them at 10 min, 20 min, 30 min, 1 h, 2 h, 3 h and 6 h after administration of a single dose of ligands. Blood was collected from the brachial region on lithium heparinated tubes in order to prevent coagulation.
as §1
[5] abbreviates: RAW264.7, Table 1, […], mean of two experiments.

`O=C(CCCC(F)(F)F)N1CCC(c2nc(-c3nccs3)no2)CC1` [Compound 42, 5,5,5-Trifluoro-1-[4-(3-thiazol-2-yl-1,2,4-oxadiazol-5-yl)-piperidin-1-yl]-pentan-1-one] gave a microsomal CLint in “in vitro” of 15 µL/min/mg. In addition, the “AUC∞” value in series [1] is 98600 ng·h/mL. The compound also returned an EC50 in series [2] (RAW264.7) of 60 nM. In addition, in series [3], the Solubility was determined as 410 µg/mL (≈ 1100 µM).

For the compound `CS(=O)(=O)c1ccc(-c2noc(C3CCN(C(=O)CCCC(F)(F)F)CC3)n2)cc1` [Compound 46, 5,5,5-trifluoro-1-{4-[3-(4-methanesulfonylphenyl)-1,2,4-oxadiazol-5-yl]piperidin-1-yl}pentan-1-one], the intrinsic metabolic clearance (microsomal CLint) at 1 μM in the series “in vitro” amounted to 14 µL/min/mg. The compound also showed an EC50 in series [2] (RAW264.7) of 20 nM. Moreover, the solubility at 24 h in “physchem” amounted to 80 µg/mL (≈ 180 µM).

`O=C(CCCC(F)(F)F)N1CCC(c2nc(-c3ccccc3)no2)CC1` [Compound 45, 5,5,5-trifluoro-1-[4-(3-phenyl-1,2,4-oxadiazol-5-yl)piperidin-1-yl]pentan-1-one] came in with a microsomal CLint at 1 μM in “in vitro” of 73 µL/min/mg. The compound also came in with an EC50 in series [2] (RAW264.7) of 100 nM. The compound further showed a solubility at 24 h in “physchem” of 80 µg/mL (≈ 218 µM).

`O=C(CCCC(F)(F)F)N1CC[C@@H](c2nc(-c3cccs3)no2)C1` [Compound 43, 5,5,5-trifluoro-1-[(3R)-3-[3-(thiophen-2-yl)-1,2,4-oxadiazol-5-yl]pyrrolidin-1-yl]pentan-1-one] yielded a microsomal CLint at 1 μM in the series “in vitro” of 297 µL/min/mg. The EC50 in series [2] (RAW264.7) is 100 nM. Besides, the concentration in solution in the series “physchem” (solubility at 24 h) was 237 µg/mL (≈ 659 µM).

In the case of `O=C(CCC(F)(F)F)N1CCC(c2nc(-c3nccs3)no2)CC1` [Compound 5, 4,4,4-Trifluoro-1-[4-(3-thiazol-2-yl-1,2,4-oxadiazol-5-yl)-piperidin-1-yl]-butan-1-one], the microsomal CLint in “in vitro” is 37 µL/min/mg. For the same compound, the “AUC∞” value was determined as 100500 ng·h/mL in series [1] and 73500 ng·h/mL in series [4]. Further, the half-maximal effective concentration (EC50) was at most 500 nM in series [2] (RAW264.7) and 500 nM in series [2] (setting [5]). In addition, in series [3], the Solubility worked out at 300 µg/mL (≈ 832 µM).

Consider `COc1ccc2nc(-c3noc(C4CCN(C(=O)CCC(F)(F)F)CC4)n3)sc2c1` [Compound 7, 4,4,4-Trifluoro-1-{4-[3-(6-methoxy-benzothiazol-2-yl)-1,2,4-oxadiazol-5-yl]-piperidin-1-yl}-butan-1-one], for which, in the series “in vitro”, the microsomal CLint was found to be 197 µL/min/mg. The compound further yielded an EC50 in series [2] (setting [5]) of 200 nM. In series [3], this compound yielded a Solubility of 6 µg/mL (≈ 13.6 µM).

Turning to `O=C(CCC(F)(F)F)N1CCC(c2nc(C3CCCC3)no2)CC1` [Compound 32, 1-[4-(3-Cyclopentyl-1,2,4-oxadiazol-5-yl)-piperidin-1-yl]-4,4,4-trifluoro-butan-1-one], the EC50 in series [2] (setting [5]) was determined as 800 nM.

Regarding `O=C(CCC(F)(F)F)N1CC[C@@H](c2nc(-c3cccs3)no2)C1` [Compound 2], the intrinsic metabolic clearance (microsomal CLint) in “in vitro” turned out to be 4 µL/min/mg. The same compound gave a concentration for a half-maximal effect (EC50) in series [2] (RAW264.7) of 400 nM. Further, the “AUC∞” value in series [4] worked out at 100 ng·h/mL. In addition, in series [3], the Solubility amounted to 80 µg/mL (≈ 232 µM).

Take `O=C(CCCC(F)(F)F)N1CCC(c2nc(-c3cccs3)no2)CC1` [Compound 44, 5,5,5-trifluoro-1-{4-[3-(thiophen-2-yl)-1,2,4-oxadiazol-5-yl]piperidin-1-yl}pentan-1-one]: the response in series [2] (RAW264.7) was half-maximal at 70 nM (EC50).

Consider `O=C(CCC(F)(F)F)N1CC[C@@H](c2nc(-c3nccs3)no2)C1` [Compound 41, 4,4,4-trifluoro-1-[(3R)-3-[3-(1,3-thiazol-2-yl)-1,2,4-oxadiazol-5-yl]pyrrolidin-1-yl]butan-1-one], for which, in series [2] (RAW264.7), the EC50 was found to be 6300 nM. This EC50 is about 90-fold higher than that of the compound before.

Consider `O=C(CCC(F)(F)F)N1CCC(c2nc(-c3cccs3)no2)CC1` [Compound 3, 4-4-4-trifluoro-1-[4-(3-thiophen-2-yl-[1,2,4]oxadiazol-5-yl)-piperidin-1-yl]butan-1-one, reference compound], for which, in “in vitro”, the microsomal CLint stood at 213 µL/min/mg. Also, the concentration for a half-maximal effect (EC50) in series [2] (RAW264.7) and in series [2] (setting [5]) was 100 nM in each case. This compound gave a Solubility in series [3] of 150 µg/mL (≈ 417 µM).

For `O=C(CCC(F)(F)F)N1CCC(c2nc(-c3ccccc3)no2)CC1` [Compound 8, 4,4,4-Trifluoro-1-[4-(3-phenyl-1,2,4-oxadiazol-5-yl)-piperidin-1-yl]-butan-1-one], the EC50 in series [2] (RAW264.7) was at most 500 nM; in series [2] (setting [5]), 500 nM. This compound gave a Solubility in series [3] of 40 µg/mL (≈ 113 µM).
